What was measured:
[1] = tested on: MCF-7 human breast adenocarcinoma; test: Antiproliferative activity, MTT; assay type: cell-based; conditions: MCF7, 48 h treatment, read-out: Antiproliferative Activity (IC50 ± SD) MCF-7
Description: (§1) U937 histiocytic lymphoma, HL60 acute promyelocytic leukemia, H1299 lung adenocarcinoma, MCF7 breast carcinoma, HT1080 fibrosarcoma, M14 melanoma, HeLa epithelial cervix carcinoma and peripheral blood B lymphocyte AHH1 human cell lines were obtained from the Deutsche Sammlung für Mikroorganismen and Zellkulturen (DSZM, Braunschweig, Germany) and were maintained in RPMI 1640 medium contained 10% fetal bovine serum (FBS), 2 mM L-glutamine, and antibiotics in a humidified atmosphere with 5% CO2 at 37 °C. HCT116 (ATCC, VA, USA) cells were propagated in Dulbecco’s modified Eagle medium (DMEM) (Euroclone, Milan, Italy) with 10% fetal bovine serum (FBS; Euroclone, Milan, Italy), 2 mM L-glutamine (Euroclone, Milan, Italy), and antibiotics (100 U/mL penicillin, 100 µg/mL streptomycin) (Euroclone, Milan, Italy). The experiments were performed with early (3–20) cell passages. Cell lines were treated with compounds at the indicated concentrations in the exponential growth phase.
(§2) Then, increasing concentrations of different compounds (ranging from 0.01 to 100 μM) were added, and cell proliferation was evaluated by a MTT assay after 48 h. Cells exposed to DMSO were used as control. The effect of compounds was evaluated using the CellTiter-Glo luminescent cell viability assay (Promega, Madison, WI, USA) according to the manufacturer’s instructions. For HCT116, 5 × 10^4 cells/well were plated in 24-well plate and treated, in duplicate, with compounds at several concentrations for 24 and 48 h of induction. After treatments, MTT solution was added for 3 h at 0.5 mg/mL, the obtained crystals were dissolved in DMSO (Sigma-Aldrich, Milan, Italy), and the absorbance was read at a wavelength of 570 nm with reader TECAN M-200. All the experiments were performed in triplicate and repeated at least three times.
(§3) IC50 values of compounds against cellular viability were determined by using nonlinear regression fitting curves with GraphPad Prism 8. The t-test used for statistical analyses was performed with GraphPad Prism 8. All the tests were one-tailed and a p-value < 0.05 was considered statistically significant.

[2] = tested on: HeLa epithelial cervix carcinoma; test: Antiproliferative activity, MTT; assay type: cell-based; conditions: Homo sapiens, 48 h treatment, read-out: Antiproliferative Activity (IC50 ± SD) HeLa
Description: as §1, §2, §3

[3] = tested on: HT1080 human fibrosarcoma; test: Antiproliferative activity, MTT; assay type: cell-based; conditions: HT-1080, 48 h treatment, read-out: Antiproliferative Activity (IC50 ± SD) HT1080
Description: as §1, §2, §3

[4] = tested on: HCT116 human colorectal carcinoma; test: Antiproliferative activity, MTT; assay type: cell-based; conditions: HCT-116, 48 h treatment, read-out: Antiproliferative Activity (IC50 ± SD) HCT116
Description: as §1, §2, §3

U937 cells = test: Sub-G1 peak, cell cycle flow cytometry; assay type: cell-based, human; conditions: U937, 1 µM; for effect on sub-G1 peaks vs untreated cells: 24 and 48 h
Description: Cell cycle analysis was performed on 5 × 10^5 fixed cells resuspended in a RNase A (3 mg/mL) and propidium iodide (PI) solution (1 mg/mL). Samples were analyzed with a C6 Accuri BD (Becton Dickinson & Co., San Jose, CA, USA). The percentage of apoptosis was measured analyzing sub-G1 peaks. Apoptotic cell death was also evaluated by using annexin V–fluorescein isothiocyanate (FITC) apoptosis kit (BD Bioscience) and assayed according to the manufacturer’s instructions. Cells double-stained for both annexin V and PI were analyzed by flow cytometry. PI was used in conjunction with annexin V–FITC to distinguish cells in the earlier stages of apoptosis (annexin V-FITC positive, PI negative) from those in later stages of apoptosis or that were already dead (annexin V–FITC positive, PI positive). Percentage of cells positive for caspase-3 activation was evaluated by Active Caspase-3 Apoptosis Kit (BD biosciences, Milan, Italy) according to the manufacturer’s instructions.

[5] = tested on: luciferase reporter under methylated CMV promoter in KG-1 leukemia cells; test: CMV-luc assay in KG-1 cells; assay type: cell-based; conditions: KG-1 CMV-luc, vs DMSO
Description: The assay was carried out as described by Rilova et al.. The KG-1 cell line was stably transfected with the luciferase firefly (Luc^+ from pGL3 by Promega, Madison, WI, USA) reporter gene under the control of a methylated CMV promoter (from pEGFP-N1 by Clontech) and selected for the maintenance of the methylation of CMV and luciferase expression silencing (KG-1 CMV-luc). The stably integrated KG-1 CMV-luc cells are cultivated in RPMI-1640 medium (Lonza, Strasbourg, France), supplemented with 10% FCS (Lonza, Strasbourg, France) and 0.5 mg/mL of geneticin (Sigma-Aldrich, Saint-Quentin Fallavier, France), under 5% CO2, at 37 °C and seeded at 20,000 cells per well in 96-well plates. After 5 or 24 h of incubation in the presence of compounds or the solvent DMSO, the induction of the promoter is measured by quantification of luciferase with the Brite-lite assay system (PerkinElmer, Villebon-sur-Yvette, France) according to the manufacturer’s protocol. The luminescence is measured on an EnVision Multilabel Plate Reader (PerkinElmer, Villebon-sur-Yvette, France), and the data are expressed as fold induction compared to DMSO control. The mean of 2–4 experiments and its standard error are reported.

[6] = target: T1, C-terminal catalytic domain of human DNMT3A (hDNMT3A) (Homo sapiens, UniProt Q9Y6K1); test: DNMT3A restriction-based fluorescence assay; assay type: biochemical; conditions: for EC50: mean of at least two independent experiments, read-out: Enzyme Inhibition (EC50 ± SD) hDNMT3A
T1 construct: the C-terminal catalytic domain of human DNMT3A (hDNMT3A)
Description: DNMT3A enzyme inhibition was adapted from the restriction-based fluorescence assay protocol described in Ceccaldi et al.. Briefly, a biotin-labelled oligonucleotide at the 5’ end is hybridized to his complementary strand labelled at the 3’ end with 6-carboxyfluorescein. The DNA duplex containing only one single CpG site overlapping with a restriction site of a methylation sensitive restriction enzyme is transferred in the wells coated with avidin. The methylation reaction is performed by adding human C-terminal DNMT3A at the final concentration of 4 ng/µL in a total volume of 50 µL in the presence of the inhibitors at various concentrations and the co-substrate SAM at the final concentration of 20 µM. The plate was incubated for 1 h at 37 °C, washed, and added with the methylation sensitive restriction enzyme HpyCH4IV, incubated for 1 h further at 37 °C, washed and the fluorescence measured with a PerkinElmer Envision Multilabel Plate Reader. The data are expressed as percentage of inhibition vs. log concentration (M). Data are normalized referring to the “restriction control” (wells coated with labelled duplex not treated nor exposed to DNMT3A, but only cleaved by HpyCH4IV) as the maximum of inhibition (100%) and to the “DMSO control” (wells coated with labelled duplex but treated just with 0.1% DMSO exposed to DNMT3A and then to HpyCH4IV) as the minimum of inhibition (0%; total methylation).

T1 sequence (Q9Y6K1 634-912 limits assumed): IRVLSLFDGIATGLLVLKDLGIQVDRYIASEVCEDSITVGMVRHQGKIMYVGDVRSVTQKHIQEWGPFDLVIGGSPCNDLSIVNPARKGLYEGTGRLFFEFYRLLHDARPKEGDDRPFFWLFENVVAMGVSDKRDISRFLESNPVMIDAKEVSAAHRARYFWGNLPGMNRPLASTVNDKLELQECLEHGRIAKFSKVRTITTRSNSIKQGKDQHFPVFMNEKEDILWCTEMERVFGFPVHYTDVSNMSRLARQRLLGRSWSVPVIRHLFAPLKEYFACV

SMILES | IC50 [1] [µM] | IC50 [2] [µM] | IC50 [3] [µM] | IC50 [4] [µM] | percentage of sub-G1 peak (U937 cells; 48 h) [%] | Luciferase Expression (Fold ± SD) ([5]; 0.5 µM) [fold] | Luciferase Expression (Fold ± SD) ([5]; 1 µM) [fold] | Luciferase Expression (Fold ± SD) ([5]; 5 µM) [fold] | Luciferase Expression (Fold ± SD) ([5]; 10 µM) [fold] | Luciferase Expression (Fold ± SD) ([5]; 25 µM) [fold] | EC50 [6] [µM] | effect on sub-G1 peaks vs untreated cells (U937 cells) | fold more potent than 4 against hDNMT3A ([6]; ratio of EC50 values vs 4) [fold]
O=C(Nc1ccc(Nc2ccnc3ccccc23)cc1)c1cccc(Nc2ccnc3ccccc23)c1 [Compound 2a] | 4.1 ± 0.7 | 0.14 ± 0.04 | 0.5 ± 0.09 | 1 ± 0.2 | 62 | 1.02 ± 0.04 | 1.05 ± 0.12 | 19.94 ± 4.26 | 4.66 ± 1.63 | 1.59 ± 0.59 | 6 ± 1 | – | –
O=C(Nc1cccc(Nc2ccnc3ccccc23)c1)c1cccc(Nc2ccnc3ccccc23)c1 [Compound 2b] | 0.3 ± 0.06 | 2 ± 0.3 | 2.7 ± 0.4 | 1.5 ± 0.3 | – | – | – | – | – | – | – | – | –
O=C(Nc1cccc(Nc2ccnc3ccccc23)c1)c1ccc(Nc2ccnc3ccccc23)cc1 [Compound 2c] | 2.2 ± 0.4 | 4.2 ± 0.8 | 2.6 ± 0.6 | 2.3 ± 0.5 | – | – | – | – | – | – | 5.6 ± 1 | – | –
O=C(Nc1ccc(NC(=O)c2cccc(Nc3ccnc4ccccc34)c2)cc1)OCc1ccccc1 [Compound 4a] | – | 77 ± 7.9 | 19.5 ± 2.8 | 23.9 ± 2.6 | – | 1.05 ± 0.12 | 1.02 ± 0.07 | 1.04 ± 0.16 | 1.45 ± 0.39 | 1.60 ± 1.00 | > 32 | very low | –
O=C(Nc1cccc(NC(=O)c2ccc(Nc3ccnc4ccccc34)cc2)c1)OCc1ccccc1 [Compound 4c] | – | 7.4 ± 1.2 | 3.9 ± 0.8 | 17.7 ± 2.4 | – | 0.96 ± 0.01 | 0.87 ± 0.05 | 40.40 ± 12.75 | 28.51 ± 3.39 | 8.07 ± 1.96 | 6.1 ± 1 | no | 3

From paper PMC7073229, “Novel Quinoline Compounds Active in Cancer Cells through Coupled DNA Methyltransferase Inhibition and Degradation” (Cancers, 2020)
